From publication PMC9569450, “Dual Effect of Tryptamine on Prostate Cancer Cell Growth Regulation: A Pilot Study” (International Journal of Molecular Sciences, 2022)
Where two headings read alike, the source gives them in different places.

Tests used:
RWPE-1 cells = assay: MTT cell proliferation assay, RWPE-1; assay type: cell-based; settings: for IC50: MTT, 48 h treatment in FBS-free medium, read-out: IC50 Value (Mean ± SD mM) RWPE-1
Method: (§1) PC-3, LNCaP, RWPE-1, HepG2, A549, and PANC-1 cells were purchased from the National Collection of Authenticated Cell Cultures (Shanghai, China). […] All the above cell cultures were supplied with 10% fetal bovine serum and 1% penicillin-streptomycin. RWPE-1 cells were cultured in keratinocyte serum-free medium (K-SFM, Gibco, New York, NY, USA) supplemented with 50 mg/L bovine pituitary extract and 5 μg/L epidermal growth factor (EGF). All cell lines were grown in a humidified atmosphere of 5% CO2 at 37 °C.
(§2) Cells were seeded in 100 μL complete medium in a 96-well plate, at a density of 10,000 cells/well for LNCaP and 5000 cells/well for other cells. Cells were pre-incubated for 24 h to allow for adherence before removal of complete medium and treatment with various concentrations of compounds in fetal bovine serum (FBS)-free medium for 48 h. After treatment, 20 μL/well MTT (5 mg/mL) was added and incubated for 3–4 h at 37 °C, and then 100 μL/well DMSO was added for MTT assay. The plate was shaken on an orbital shaker for 10 min. Absorbance was measured using a microplate reader at 492 nm for the MTT assay (performed in triplicates). Cell viability was normalized to control. Half inhibitory concentration (IC50) was calculated by SPSS Statistics 17.0. […] The experiments were independently repeated two to three times.

PC-3 cells = assay: MTT cell proliferation assay, PC-3; assay type: cell-based, human; settings: read-out: IC50 Value (Mean ± SD mM) PC-3
Method: as §1, §2

LNCaP cells = assay: MTT cell proliferation assay, LNCaP; assay type: cell-based; settings: 48 h treatment in FBS-free medium, read-out: IC50 Value (Mean ± SD mM) LNCaP
Method: as §1, §2

A549 cells = assay: MTT cell proliferation assay, A549; assay type: cell-based; settings: read-out: IC50 Value (Mean ± SD mM) A549
Method: as §1, §2

HepG2 cells = assay: MTT cell proliferation assay, HepG2; assay type: cell-based; settings: read-out: IC50 Value (Mean ± SD mM) HepG2
Method: as §1, §2

PANC-1 cells = assay: MTT cell proliferation assay, PANC-1; assay type: cell-based; settings: read-out: IC50 Value (Mean ± SD mM) PANC-1
Method: as §1, §2

[1] = system: PC-3, LNCaP, RWPE-1, A549, PANC-1, and HepG2 cells; assay: MTT cell proliferation assay, all cell lines; assay type: cell-based
Method: (§3) PC-3, LNCaP, RWPE-1, HepG2, A549, and PANC-1 cells were purchased from the National Collection of Authenticated Cell Cultures (Shanghai, China). PC-3 and A549 cells were cultured in F-12K Nutrient Mixture (Gibco, New York, NY, USA), LNCaP in RPMI 1640 (Gibco, New York, NY, USA), PANC-1 in Dulbecco’s Modified Eagle Medium (DMEM, Gibco, New York, NY, USA), and HepG2 in minimal essential medium (MEM, Gibco, New York, NY, USA). All the above cell cultures were supplied with 10% fetal bovine serum and 1% penicillin-streptomycin. RWPE-1 cells were cultured in keratinocyte serum-free medium (K-SFM, Gibco, New York, NY, USA) supplemented with 50 mg/L bovine pituitary extract and 5 μg/L epidermal growth factor (EGF). All cell lines were grown in a humidified atmosphere of 5% CO2 at 37 °C.
(§4) Cells were seeded in 100 μL complete medium in a 96-well plate, at a density of 10,000 cells/well for LNCaP and 5000 cells/well for other cells. Cells were pre-incubated for 24 h to allow for adherence before removal of complete medium and treatment with various concentrations of compounds in fetal bovine serum (FBS)-free medium for 48 h. After treatment, 20 μL/well MTT (5 mg/mL) was added and incubated for 3–4 h at 37 °C, and then 100 μL/well DMSO was added for MTT assay. The plate was shaken on an orbital shaker for 10 min. Absorbance was measured using a microplate reader at 492 nm for the MTT assay (performed in triplicates). Cell viability was normalized to control. Half inhibitory concentration (IC50) was calculated by SPSS Statistics 17.0. The combination index (CI) isobologram equation was used for the quantitative determination of the interaction between two compounds [62]:(1) Combination index CI =CA,x/ICx,A+CB,x/ICx,B where CA,x and CB,x are compound concentrations that […], and ICx,A and ICx,B are compound concentrations that provide the same effect when being used in combination. The experiments were independently repeated two to three times.

PC-3 xenograft tumors = assay: PC-3 xenograft mouse model; assay type: in vivo; settings: 200 mg/kg
Method: Five-week-old male BALB/c nude mice were purchased from Charles River Laboratories (Beijing, China) and raised in a temperature and humidity-controlled environment (25 ± 2 °C, 50% ± 10% humidity) with a standard 12 h light-dark cycle with food and water in cages under germ-free conditions (SCXK2021-0006). All procedures involving animals and their care were approved by the Institutional Animal Care and Use Committee of the Ocean University of China in accordance with institutional and National Institutes of Health guidelines (OUC-SMP-2022-01-01). PC-3 cells (4 × 10^6 dissolved in 150 μL PBS) were injected subcutaneously into the armpit area of each mouse. For the first treatment group, when tumors reached 50 mm^3, 80 mg/kg of tryptamine dissolved in normal saline with 0.1% formic acid was administered intraperitoneally once every other day for 32 days (n = 6). […] The control groups were administrated with the vehicle. The tumor volume (mm^3) was calculated based on the formula:(2) Tumor volume (mm^3)=length×width^2/2

ovarian cancer = system: ovarian cancer; parameters: method as in PMID 27121207; settings: intraperitoneal injections of 10 mg/kg; cited from earlier work
PC-3 and LNCaP cells = assay: MTT cell proliferation assay, PCa cell lines; assay type: cell-based; settings: Homo sapiens, read-out: IC50 values on PCa cell lines
Method: as §3, §4

[2] = system: human castration-resistant PCa cells DU145 and PC3; parameters: method as in PMID 33945018; settings: cited from earlier work
[3] = system: A549, HepG2, and PANC-1 cells; assay: MTT cell proliferation assay, other three cancer cell lines; assay type: cell-based; settings: A549, HepG2, and PANC-1, text summary
Method: as §1, §2

[4] = Homo sapiens, PC-3, 48 h treatment in FBS-free medium
[5] = Homo sapiens, A549, 48 h treatment in FBS-free medium
[6] = Homo sapiens, HepG2, 48 h treatment in FBS-free medium
[7] = Homo sapiens, PANC-1, 48 h treatment in FBS-free medium
[8] = all cell lines tested, read-out: IC50 values for all six cell lines tested
[9] = 48 h treatment in FBS-free medium
[10] = discussion summary, all cancer cell lines tested, read-out: IC50 values in all cancer cell lines tested

| SMILES | IC50 (RWPE-1 cells; Homo sapiens, RWPE-1) | IC50 (PC-3 cells; [4]) | IC50 (LNCaP cells; Homo sapiens, LNCaP) | IC50 (A549 cells; [5]) | IC50 (HepG2 cells; [6]) | IC50 (PANC-1 cells; [7]) | IC50 [1, 8] | other results |
| --- | --- | --- | --- | --- | --- | --- | --- | --- |
| Nc1c(O)cccc1C(=O)O [3-HAA, 3-hydroxyanthranilic acid] | 0.38 ± 0.01 mM | 0.9 ± 0.04 mM | 0.65 ± 0.06 mM | 0.27 ± 0.01 mM | 0.42 ± 0.02 mM | 0.41 ± 0.01 mM | ≤ 900 µM | Effect on proliferation of RWPE-1 cells (RWPE-1 cells; concentrations between 0.03 and 0.1 mM): promoted the proliferation; tumor size (PC-3 xenograft tumors; intraperitoneal administration): No difference in tumor size; tumor size (PC-3 xenograft tumors; intratumoral administration): No difference in tumor size |
| Nc1c(O)cccc1C(=O)CC(N)C(=O)O (centres unmarked) [3-HK, 3-hydroxykynurenine] |  |  |  |  |  |  | ≤ 900 µM | IC50 (RWPE-1 cells): 0.36 ± 0.01 mM; IC50 (PC-3 cells; [9]): 0.55 ± 0.01 mM; IC50 (LNCaP cells): 0.29 ± 0.01 mM; IC50 (A549 cells; [9]): 0.29 ± 0.01 mM; IC50 (HepG2 cells; [9]): 0.25 ± 0.01 mM; IC50 (PANC-1 cells; [9]): 0.25 ± 0.01 mM |
| NCCc1c[nH]c2ccc(O)cc12 [5-HT, 5-hydroxytryptamine] | 1.66 ± 0.01 mM | 1.07 ± 0.03 mM | 1.12 ± 0.04 mM | 1.89 ± 0.09 mM | 1.05 ± 0.17 mM | 1.34 ± 0.13 mM | ≥ 1000 µM | tumor weight increase (ovarian cancer): ~60% |
| N[C@@H](Cc1c[nH]c2ccc(O)cc12)C(=O)O [5-HTP, 5-hydroxytryptophan] | 0.85 ± 0.05 mM | 0.99 ± 0.04 mM | 1.8 ± 0.17 mM |  |  |  |  |  |
| Nc1c(C(=O)O)c2nc3c(C(=O)O)cccc3oc-2cc1=O [CA, cinnabarinic acid] | 0.4 ± 0.01 mM | 0.17 ± 0.01 mM | 0.24 ± 0.01 mM | 0.21 ± 0.01 mM | 0.1 ± 0.01 mM | 0.25 ± 0.04 mM | ≤ 900 µM |  |
| COc1cc([C@@H]2c3cc4c(cc3[C@@H](O[C@@H]3O[C@@H]5CO[C@@H](C)O[C@H]5[C@H](O)[C@H]3O)[C@H]3COC(=O)[C@H]23)OCO4)cc(OC)c1O [Etoposide, reference compound] | 0.016 ± 0.001 mM | 0.064 ± 0.001 mM | 0.032 ± 0.001 mM | 0.041 ± 0.002 mM | 0.03 ± 0.001 mM | 0.042 ± 0.001 mM |  |  |
| c1ccc2[nH]ccc2c1 [Indole] | 0.9 ± 0.06 mM | 0.7 ± 0.02 mM | 0.98 ± 0.02 mM |  |  |  |  |  |
| O=C(O)c1cc(=O)c2ccccc2[nH]1 [KYNA, kynurenic acid] | 4.39 ± 0.1 mM | 8.76 ± 1.18 mM | 9.74 ± 1.3 mM |  |  |  |  | IC50 (PC-3 and LNCaP cells; PC-3 and LNCaP): > 5000 µM; IC50 [1, 10]: > 3000 µM; effect on DU145 and PC3 cells [2]: scarce or no effect |
| Nc1ccccc1C(=O)CC(N)C(=O)O (centres unmarked) [Kynurenine, kynurenine] | 2.79 ± 0.05 mM | 2.02 ± 0.05 mM | 1.78 ± 0.18 mM | 2.46 ± 0.05 mM | 1.93 ± 0.03 mM | 2.63 ± 0.04 mM | ≥ 1000 µM |  |
| COc1ccc2[nH]cc(CCNC(C)=O)c2c1 [Melatonin] | 1.47 ± 0.1 mM | 1.28 ± 0.06 mM | 1.25 ± 0.12 mM | 2.31 ± 0.06 mM | 1.48 ± 0.1 mM | 2.02 ± 0.09 mM | ≥ 1000 µM |  |
| O=C(O)c1ccccn1 [Picolinic acid] | 1.48 ± 0.06 mM | 4.95 ± 0.19 mM | 5.75 mM |  |  |  |  |  |
| O=C(O)c1cccnc1C(=O)O [QA, quinolinic acid] | 3.2 ± 0.16 mM | 6 ± 1.32 mM | 6.83 ± 0.42 mM |  |  |  |  | IC50 (PC-3 and LNCaP cells; PC-3 and LNCaP): > 5000 µM; IC50 [1, 10]: > 3000 µM |
| N[C@@H](Cc1c[nH]c2ccccc12)C(=O)O [Tryptophan] | 0.76 ± 0.03 mM | 1.89 ± 0.13 mM | 6.51 ± 0.29 mM | 1.5 ± 0.15 mM | 1.54 ± 0.04 mM | 4.54 ± 0.19 mM |  | IC50 (PC-3 and LNCaP cells; LNCaP): 1900 to 6500 µM; IC50 [3]: 1500 to 4500 µM |
| NCCc1ccc(O)cc1 [Tyramine, reference compound] | 2.99 ± 0.08 mM | 1.53 ± 0.04 mM | 1.71 ± 0.12 mM | 3.18 ± 0.24 mM | 1.53 ± 0.05 mM | 0.77 ± 0.04 mM |  |  |
| NCCc1ccccc1 [β-phenylethylamine, reference compound] |  |  |  |  |  |  |  | IC50 (RWPE-1 cells): 2.51 ± 0.19 mM; IC50 (PC-3 cells; [9]): 0.44 ± 0.01 mM; IC50 (LNCaP cells): 0.69 ± 0.06 mM; IC50 (A549 cells; [9]): 0.72 ± 0.06 mM; IC50 (HepG2 cells; [9]): 1.01 ± 0.03 mM; IC50 (PANC-1 cells; [9]): 1.47 ± 0.07 mM |
